{
  "source": "patent US8710010B2",
  "about": "“Peptides useful in the treatment and/or care of skin, mucous membranes, scalp and/or hair and their use in cosmetic or pharmaceutical compositions” (Lipotec, S.A., priority 2008, dated 2014)",
  "key": {"[1]": {"experiment": "Scavenging assay of 4-hydroxy-2-nonenal", "assay_type": "biochemical", "conditions": "2 mM peptide in 10 mM PBS mixed with equal volume of 100 μM aldehyde in acetonitrile, 37° C., 24 h, HPLC of remaining aldehyde", "experimental": "Scavenging assay of 4-hydroxy-2-nonenal.\n(§1) A solution was prepared from peptides in a 10 mM PBS buffer at a concentration of 2 mM, as well as a solution of the aldehyde in acetonitrile at a concentration of 100 μM. Equal volumes of peptide solutions and aldehyde were mixed and were left to react at 37° C. for 24 h. The scavenging efficiency of the RCS was measured by HPLC analysis of the remaining aldehyde content in the reaction mixture."}, "[2]": {"experiment": "Scavenging assay of 2-nonenal", "assay_type": "biochemical", "conditions": "2 mM peptide in 10 mM PBS mixed with equal volume of 100 μM aldehyde in acetonitrile, 37° C., 24 h, HPLC of remaining aldehyde", "experimental": "Scavenging assay of 2-nonenal.\nas §1, with “and” for “and were”"}, "[3]": {"test_system": "human keratinocytes", "experiment": "Photoprotection efficiency in cultured human keratinocytes (solar simulation lamp, Neutral Red viability)", "assay_type": "cell-based", "conditions": "1 mg/ml peptide, viability compared with irradiated and non-irradiated control cells", "experimental": "Testing the photoprotection efficiency of H-L-Dpr-D-Ala-L-Pro-L-His-OH, H-L-Dpr-D-Ala-L-Ala-L-His-OH and H-L-Dp- L-Ala-L-Pro-L-His-OH in cultured human keratinocytes.\nHuman keratinocytes were maintained in culture for 24 h on 96 well plates to form monolayers and the cells were pre-incubated in the dark with 1 mg/ml of H-L-Dpr-D-Ala-L-Pro-L-His-OH, H-L-Dpr-D-Ala-L-Ala-L-His-OH, H-L-Dpr-L-Ala-L-Pro-L-His-OH or phosphate buffered saline (control) for one hour at 37° C. and humidified air with 5% CO2. Subsequently, cells were irradiated with a solar simulation lamp (with an energy of 37 J/cm^2 at room temperature for 150 min in the case of H-L-Dpr-D-Ala-L-Pro-L-His-OH). A control plate was kept in the dark during the same time at room temperature. After the period of irradiation, the cell medium was replaced by a fresh medium and the cells were incubated for an additional 24 h.\nCell viability was determined by the Neutral Red dye, measuring the absorbance at 540 nm in a spectrophotometer.\nThe photoprotection efficiency was determined by comparing the viability obtained in cells treated with H-L-Dpr-D-Ala-L-Pro-L-His-OH, H-L-Dpr-D-Ala-L-Ala-L-His-OH or H-L-Dpr-L-Ala-L-Pro-L-His-OH on the response of irradiated and non-irradiated control cells."}, "[4]": {"test_system": "Primary cultures of human melanocytes", "experiment": "Protective capacity against DNA degradation (UVA, alkaline comet assay)", "assay_type": "cell-based", "conditions": "1.0 μg/mL for 2 h at 37° C., then UVA 1.0 J/cm^2, alkaline comet assay", "experimental": "Test of the Protective Capacity of DNA Degradation\nPrimary cultures of human melanocytes (10^5 cells/plate) were treated with 1.0 μg/mL of H-L-Dpr-D-Ala-L-Pro-L-His-OH for 2 h at 37° C. Subsequently, the cultures were irradiated with UVA at 1.0 J/cm^2 for no longer than 3min at 4° C. and the extent of the damage induced to DNA was determined by alkaline comet assay [De Meo M., Laget M., Castegnaro M. and Dumenil G. (1991) “Genotoxic activity of potassium permanganate in acidic solutions” Mutat. Res 260:295-306]."}, "[5]": {"test_system": "Primary cultures of human fibroblasts", "experiment": "Repair capacity of DNA degradation (UVB, alkaline comet assay)", "assay_type": "cell-based", "conditions": "UVB 0.4 J/cm^2 30 s, versus intrinsic repair efficiency of the cells", "from_the_text": "Testing the Repair Capacity of DNA Degradation\nPrimary cultures of human fibroblasts (10^5 cells/plate) were irradiated to 0.4 J/cm^2 UVB for 30 seconds. […]"}, "[6]": {"experiment": "Reduction of the odor emitted by aldehyde 2-nonenal (sniff test)", "conditions": "0.05% peptide in phosphate buffer 10 mM pH 7-7.5 added to equal volume of 0.00089% 2-nonenal in acetonitrile, odor at time zero and 24 h, panel of 3 experts", "experimental": "Reduction of the Odor Emitted by Aldehyde 2-nonenal\nWe evaluated the reduction of the odor given off by aldehyde 2-nonenal after the addition of a solution containing 0.05% of H-L-Dpr-L-Ala-L-Ala-L-His-OH through an olfactory test (“sniff test”) conducted by a panel of 3 independent experts.\nWe prepared a solution of 2-nonenal at 0.00089% in acetonitrile to which was added an equal volume of phosphate buffer 10 mM pH 7-7.5 or H-L-Dpr-L-Ala-L-Ala-L-His-OH to 0.05% in phosphate buffer 10 mM pH 7-7.5. We evaluated the odor intensity given off at time zero and 24 h after creating the mixture of aldehyde and peptide, performing the measurements in a room heated to 24° C. and with controlled humidity at 60% and statistically analyzed the values obtained using the Wilcoxon Matched Paired test."}},
  "note": "Where a SMILES comes first, the peptide text is derived from it. [ ]: non-standard residue; d: D form. Dap = NC[C@H](N)C(=O)O",
  "data": [
    {"molecule": "NCCC(=O)N[C@@H](Cc1cnc[nH]1)C(=O)O", "note": "[Carnosine, carnosine, reference compound]", "values": [
      {"measurement": "Scavenging % of HNE aldehyde", "setting": "[1]", "value": 89.4, "unit": "%"},
      {"measurement": "Scavenging % of NE aldehyde", "setting": "[2]", "value": 70.3, "unit": "%"}
    ]},
    {"molecule": "NCCCC[C@H](NC(=O)[C@H](Cc1c[nH]cn1)NC(=O)CN)C(=O)O", "note": "[GHK, glycyl-histidyl-lysine, reference compound] (H-Gly-His-Lys-OH)", "values": [
      {"measurement": "Scavenging % of HNE aldehyde", "setting": "[1]", "value": 82.1, "unit": "%"},
      {"measurement": "Scavenging % of NE aldehyde", "setting": "[2]", "value": 24.7, "unit": "%"}
    ]},
    {"molecule": "C[C@@H](NC(=O)[C@@H](N)CN)C(=O)N1CCC[C@H]1C(=O)N[C@@H](Cc1c[nH]cn1)C(=O)O", "note": "[H-L-Dpr-D-Ala-L-Pro-L-His-OH] (H-[Dap][dA]PH-OH)", "values": [
      {"measurement": "Scavenging % of HNE aldehyde", "setting": "[1]", "value": 98.0, "unit": "%"},
      {"measurement": "Scavenging % of NE aldehyde", "setting": "[2]", "value": 97.0, "unit": "%"},
      {"measurement": "PHOTOPROTECTION EFFICIENCY", "setting": "[3]", "value": 92.0, "unit": "%"},
      {"measurement": "PROTECTIVE EFFICIENCY against DNA degradation", "setting": "[4]", "value": 36.1, "unit": "%"},
      {"measurement": "REPAIR EFFICIENCY of DNA degradation", "setting": "[5]; then 0.25 μg/mL for 3 h at 37° C.", "value": 120, "unit": "%"},
      {"measurement": "REPAIR EFFICIENCY of DNA degradation", "setting": "[5]; then 0.5 μg/mL for 3 h at 37° C.", "value": 170, "unit": "%"}
    ]},
    {"molecule": "C[C@H](NC(=O)[C@@H](N)CN)C(=O)N1CCC[C@H]1C(=O)N[C@@H](Cc1c[nH]cn1)C(=O)O", "note": "[H-L-Dpr-L-Ala-L-Pro-L-His-OH] (H-[Dap]APH-OH)", "values": [
      {"measurement": "Scavenging % of HNE aldehyde", "setting": "[1]", "value": 93.9, "unit": "%"},
      {"measurement": "Scavenging % of NE aldehyde", "setting": "[2]", "value": 76.7, "unit": "%"},
      {"measurement": "PHOTOPROTECTION EFFICIENCY", "setting": "[3]", "value": 56.8, "unit": "%"}
    ]},
    {"molecule": "H-L-Dpr-D-AIa-L-Asn-L-His-NH2", "values": [
      {"measurement": "Scavenging % of NE aldehyde", "setting": "[2]", "value": 98.9, "unit": "%"}
    ]},
    {"molecule": "H-L-Dpr-D-Ala-L-Ala-L-His-NH2", "values": [
      {"measurement": "Scavenging % of HNE aldehyde", "setting": "[1]", "value": 97.7, "unit": "%"},
      {"measurement": "Scavenging % of NE aldehyde", "setting": "[2]", "value": 98.2, "unit": "%"}
    ]},
    {"molecule": "H-L-Dpr-D-Ala-L-Asp-L-His-OH", "values": [
      {"measurement": "Scavenging % of HNE aldehyde", "setting": "[1]", "value": 98.8, "unit": "%"},
      {"measurement": "Scavenging % of NE aldehyde", "setting": "[2]", "value": 95.4, "unit": "%"}
    ]},
    {"molecule": "H-L-Dpr-D-Ala-L-Glu-L-His-NH2", "values": [
      {"measurement": "Scavenging % of HNE aldehyde", "setting": "[1]", "value": 97.7, "unit": "%"},
      {"measurement": "Scavenging % of NE aldehyde", "setting": "[2]", "value": 95.2, "unit": "%"}
    ]},
    {"molecule": "H-L-Dpr-D-Ala-L-Glu-L-His-OH", "values": [
      {"measurement": "Scavenging % of NE aldehyde", "setting": "[2]", "value": 93.2, "unit": "%"}
    ]},
    {"molecule": "H-L-Dpr-D-Ala-L-Pro-L-His-NH2", "values": [
      {"measurement": "Scavenging % of HNE aldehyde", "setting": "[1]", "value": 98.3, "unit": "%"},
      {"measurement": "Scavenging % of NE aldehyde", "setting": "[2]", "value": 98.1, "unit": "%"}
    ]},
    {"molecule": "H-L-Dpr-L-Ala-D-Asp-L-His-OH", "values": [
      {"measurement": "Scavenging % of HNE aldehyde", "setting": "[1]", "value": 94.1, "unit": "%"},
      {"measurement": "Scavenging % of NE aldehyde", "setting": "[2]", "value": 83.1, "unit": "%"}
    ]},
    {"molecule": "H-L-Dpr-L-Ala-L-Ala-L-His-NH2", "values": [
      {"measurement": "Scavenging % of HNE aldehyde", "setting": "[1]", "value": 96.0, "unit": "%"},
      {"measurement": "Scavenging % of NE aldehyde", "setting": "[2]", "value": 94.1, "unit": "%"}
    ]},
    {"molecule": "H-L-Dpr-L-Ala-L-Ala-L-His-OH", "values": [
      {"measurement": "Scavenging % of NE aldehyde", "setting": "[2]", "value": 74.6, "unit": "%"},
      {"measurement": "reduction of the odor given off by 2-nonenal", "setting": "[6]", "value": 15.6, "unit": "%"}
    ]},
    {"molecule": "H-L-Dpr-L-Ala-L-Asn-L-His-NH2", "values": [
      {"measurement": "Scavenging % of NE aldehyde", "setting": "[2]", "value": 95.3, "unit": "%"}
    ]},
    {"molecule": "H-L-Dpr-L-Ala-L-Asn-L-His-OH", "values": [
      {"measurement": "Scavenging % of NE aldehyde", "setting": "[2]", "value": 73.1, "unit": "%"}
    ]},
    {"molecule": "H-L-Dpr-L-Ala-L-Asp-D-His-OH", "values": [
      {"measurement": "Scavenging % of HNE aldehyde", "setting": "[1]", "value": 86.3, "unit": "%"},
      {"measurement": "Scavenging % of NE aldehyde", "setting": "[2]", "value": 66.5, "unit": "%"}
    ]},
    {"molecule": "H-L-Dpr-L-Ala-L-Asp-L-His-NH2", "values": [
      {"measurement": "Scavenging % of HNE aldehyde", "setting": "[1]", "value": 97.5, "unit": "%"},
      {"measurement": "Scavenging % of NE aldehyde", "setting": "[2]", "value": 94.5, "unit": "%"}
    ]},
    {"molecule": "H-L-Dpr-L-Ala-L-Asp-L-His-OH", "values": [
      {"measurement": "Scavenging % of HNE aldehyde", "setting": "[1]", "value": 97.6, "unit": "%"}
    ]},
    {"molecule": "H-L-Dpr-L-Ala-L-Glu-L-His-NH2", "values": [
      {"measurement": "Scavenging % of NE aldehyde", "setting": "[2]", "value": 92.6, "unit": "%"}
    ]},
    {"molecule": "H-L-Dpr-L-Ala-L-Glu-L-His-OH", "values": [
      {"measurement": "Scavenging % of NE aldehyde", "setting": "[2]", "value": 75.6, "unit": "%"}
    ]},
    {"molecule": "H-L-Dpr-L-Ala-L-Pro-L-His-NH2", "values": [
      {"measurement": "Scavenging % of HNE aldehyde", "setting": "[1]", "value": 96.3, "unit": "%"},
      {"measurement": "Scavenging % of NE aldehyde", "setting": "[2]", "value": 88.7, "unit": "%"}
    ]}
  ]
}
